Experimental data taken from patent US11939314B2, “Quinolin-2-one derivatives” (MERCK PATENT GMBH, priority 2016, dated 2024).

How the values were obtained:
[1] = biological target: T1, PDGFRalpha(V561D) (Homo sapiens, UniProt P16234, V561D); experiment: PDGFRalpha(V561D) assay; format: biochemical; settings: recombinant human PDGFRalpha aa 550-end, 200 μM ATP, 1.4E-06 means 1.4×10^−6, read-out: Inhibition (IC50) of PDGFRα (V561D)
T1 construct: recombinant human PDGFRalpha, amino acids 550end containing the V561 D mutation; 6His (N)
T1 sequence (P16234 550-1089 V561D): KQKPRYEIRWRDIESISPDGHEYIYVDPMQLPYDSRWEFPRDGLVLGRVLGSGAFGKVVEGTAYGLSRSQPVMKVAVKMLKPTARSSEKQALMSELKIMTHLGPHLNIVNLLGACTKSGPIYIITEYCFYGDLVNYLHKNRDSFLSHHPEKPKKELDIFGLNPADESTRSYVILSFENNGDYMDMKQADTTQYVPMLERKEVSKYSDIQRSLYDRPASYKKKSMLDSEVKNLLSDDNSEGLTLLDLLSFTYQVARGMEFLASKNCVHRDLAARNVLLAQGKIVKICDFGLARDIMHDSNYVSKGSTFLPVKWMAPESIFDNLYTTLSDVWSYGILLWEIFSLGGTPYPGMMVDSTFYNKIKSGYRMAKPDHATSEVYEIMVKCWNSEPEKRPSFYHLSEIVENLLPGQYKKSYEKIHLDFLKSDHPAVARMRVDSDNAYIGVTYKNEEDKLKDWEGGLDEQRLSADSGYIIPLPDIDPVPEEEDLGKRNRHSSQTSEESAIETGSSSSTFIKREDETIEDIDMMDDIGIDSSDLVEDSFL
In short: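 Radiometric filter-binding assay: substrate phosphorylation by recombinant N-His-tagged human PDGFRα 550-end V561D was quenched with 3% phosphoric acid after 40 min at room temperature, then counted.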

[2] = biological target: T2, c-Kit(V654A) (Homo sapiens, UniProt P10721, V654A); experiment: c-Kit(V654A) assay; format: biochemical; settings: recombinant human c-Kit aa 544-end, 200 μM ATP, 1.4E-06 means 1.4×10^−6, read-out: Inhibition (IC50) of c-KIT (V654A)
T2 construct: amino acids 544-end containing the V654A mutation; GST (N)
T2 sequence (P10721 544-976 V654A): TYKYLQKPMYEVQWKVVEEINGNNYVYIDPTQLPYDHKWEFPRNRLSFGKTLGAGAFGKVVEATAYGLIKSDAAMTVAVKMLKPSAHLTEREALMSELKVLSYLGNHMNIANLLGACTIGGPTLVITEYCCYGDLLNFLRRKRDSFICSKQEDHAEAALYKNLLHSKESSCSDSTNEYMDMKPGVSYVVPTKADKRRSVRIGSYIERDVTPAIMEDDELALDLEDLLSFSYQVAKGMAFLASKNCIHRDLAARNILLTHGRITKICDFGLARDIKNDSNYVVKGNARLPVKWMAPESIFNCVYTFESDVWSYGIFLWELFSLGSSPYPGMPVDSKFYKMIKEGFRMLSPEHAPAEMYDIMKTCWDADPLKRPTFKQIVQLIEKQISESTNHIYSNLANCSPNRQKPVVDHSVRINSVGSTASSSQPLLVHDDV
In short: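 Radiometric filter-binding read-out: substrate 33P incorporation counted by scintillation after P30 filtermat washes in 75 mM phosphoric acid and methanol. Enzyme: N-GST recombinant human c-Kit aa 544-end carrying V654A.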

IC50 [1] [nM] | IC50 [2] [nM] | Structure (SMILES)
310 | 19 | NC1CCN(C(=O)c2ccc(-n3cc(-c4cc5cc(F)c(F)cc5[nH]c4=O)nn3)cc2)CC1 [A143, 3-{1-[4-(4-amino-piperidine-1-carbonyl)-phenyl]-1H-[1,2,3]triazol-4-yl}-6,7-difluoro-1H-quinolin-2-one]
170 | 12 | NC1CCN(C(=O)c2ccc(-n3cc(-c4cc5cc(F)ccc5[nH]c4=O)nn3)cc2)CC1 [A144, 3-{1-[4-(4-amino-piperidine-1-carbonyl)-phenyl]-1H-[1,2,3]triazol-4-yl}-6-fluoro-1H-quinolin-2-one]
180 | 22 | O=C1CNCCN1c1ccc(-n2cc(-c3cc4cc(F)c(F)cc4[nH]c3=O)nn2)cc1 [A145, 6,7-difluoro-3-{1-[4-(2-oxo-piperazin-1-yl)-phenyl]-1H-[1,2,3]triazol-4-yl}-1H-quinolin-2-one]
23 | 11 | CN1CCN(C(=O)c2ccc(-n3cc(-c4cc5c(F)cc(F)cc5[nH]c4=O)nn3)cc2)CC1 [A152, 5,7-difluoro-3-{1-[4-(4-methyl-piperazine-1-carbonyl)-phenyl]-1H-[1,2,3]triazol-4-yl}-1H-quinolin-2-one]

Continued, compound first:

Structure (SMILES) | IC50 [1] [nM] | IC50 [2] [nM]
O=C(COc1ccc(-n2cc(-c3cc4cc(F)ccc4[nH]c3=O)nn2)cc1)N1CCNCC1 [A141, 6-fluoro-3-{1-[4-(2-oxo-2-piperazin-1-yl-ethoxy)-phenyl]-1H-[1,2,3]triazol-4-yl}-1H-quinolin-2-one] | 2.8 | 3.8
O=C(c1ccc(-n2cc(-c3cc4ccc(C(F)(F)F)cc4[nH]c3=O)nn2)cc1)N1CCNCC1 [A142, 3-{1-[4-(piperazine-1-carbonyl)-phenyl]-1H-[1,2,3]triazol-4-yl}-7-trifluoromethyl-1H-quinolin-2-one] | 2800 | 280
CN1CCN(C(=O)c2ccc(-n3cc(-c4cc5c(F)cccc5[nH]c4=O)nn3)cc2)CC1 [A149, 5-fluoro-3-{1-[4-(4-methyl-piperazine-1-carbonyl)-phenyl]-1H-[1,2,3]triazol-4-yl}-1H-quinolin-2-one] | 12 | 6
CN1CCN(C(=O)c2ccc(-n3cc(-c4cc5cccc(F)c5[nH]c4=O)nn3)cc2)CC1 [A150, 8-fluoro-3-{1-[4-(4-methyl-piperazine-1-carbonyl)-phenyl]-1H-[1,2,3]triazol-4-yl}-1H-quinolin-2-one] | 37 | 49
CN1CCN(C(=O)c2ccc(-n3cc(-c4cc5cc(Cl)ccc5[nH]c4=O)nn3)cc2)CC1 [A151, 6-chloro-3-{1-[4-(4-methyl-piperazine-1-carbonyl)-phenyl]-1H-[1,2,3]triazol-4-yl}-1H-quinolin-2-one] | 1 | 3
CN1CCN(C(=O)c2cccc(-n3cc(-c4cc5cc(F)ccc5[nH]c4=O)nn3)c2)CC1 [A153, 6-Fluoro-3-{1-[3-(4-methyl-piperazine-1-carbonyl)-phenyl]-1H-[1,2,3]triazol-4-yl}-1H-quinolin-2-one] | 4 | 24
CN1CCN(C(=O)c2ccc(-n3cc(-c4cc5ccc(Cl)cc5[nH]c4=O)nn3)cc2)CC1 [A154, 7-chloro-3-{1-[4-(4-methyl-piperazine-1-carbonyl)-phenyl]-1H-[1,2,3]triazol-4-yl}-1H-quinolin-2-one] | 3 | 11
CN1CCCN(c2ccc(-n3cc(-c4cc5cc(F)cnc5[nH]c4=O)nn3)cc2)CC1 [A155, 6-fluoro-3-{1-[4-(4-methyl-[1,4]diazepan-1-yl)-phenyl]-1H-[1,2,3]triazol-4-yl}-1H-[1,8]naphthyridin-2-one] | 61 | 81
CN1CCN(C(=O)c2ccc(-n3cc(-c4cc5c(F)c(F)ccc5[nH]c4=O)nn3)cc2)CC1 [A156, 5,6-difluoro-3-{1-[4-(4-methyl-piperazine-1-carbonyl)-phenyl]-1H-[1,2,3]triazol-4-yl}-1H-quinolin-2-one] | 40 | 26
